pIC50: −log10 of the molar value.
Tests used:
[1] = target: HDAC1 enzyme (recombinant GST-HDAC1) (Homo sapiens (Human), UniProt Q13547); test: In vitro HDAC assay for determination of IC50 values (BIOMOL fluorescent-based HDAC activity assay); type: biochemical; settings: Flur de lys substrate, 2 h room temperature, read-out: IC50 (HDAC 1)
In short: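 Recombinant human GST-HDAC1, baculovirus-expressed in SF9 cells and glutathione-purified, tested with a fluorogenic deacetylase substrate; Fluor de Lys developer added for 10 min. Fluorescence at 360 nm excitation/460 nm emission; IC50 fitted from a concentration series.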

[2] = system: Colo205 cells; test: Cell-based proliferation assay for determination of GI50 values (CyQUANT); set-up: species or system human; settings: Homo sapiens
In short: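 Colo205 cells in RPMI 1640 with 5% FBS, seeded 5000/well and grown 24 h at 37 °C. Exposure to compound lasted 96 h, with growth read by CyQUANT. GI50 = concentration giving 50% growth inhibition, from dose-response curves.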

[3] = system: acetylated histone H3 in Colo205 cells; test: Histone acetylation assay (immuno-blotting with acetylated histone H3 antibody); type: cell-based, human; settings: 10 μM, 24 h, western blot
Protocol: Histone Acetylation Assay
A hallmark of histone deacetylase (HDAC) inhibition is the increase in the acetylation level of histones. Histone acetylation, including H3, H4 and H2A can be detected by immuno-blotting (western-blot). Colo205 cells, approximately 5×10^5 cells, were seeded in the previously described medium, cultivated for 24 h and subsequently treated with HDAC inhibitory agents and a positive control at 10 μM final concentration. After 24 h, cells were harvested and lysed according to the instruction from Sigma Mammalian Cell Lysis Kit. The protein concentration was quantified using BCA method (Sigma Pte Ltd). The protein lysate was separated using 4-12% bis-tris SDS-PAGE gel (Invitrogen Pte Ltd) and was transferred onto PVDF membrane (BioRad Pte Ltd). The membrane was probed using primary antibody specific for acetylated histone H3 (Upstate Pte Ltd). The detection antibody, goat anti rabbit antibody conjugated with HRP was used according to the manufacturing instruction (Pierce Pte Ltd). After removing the detection antibody from the membrane, an enhanced chemiluminescent substrate for detection of HRP (Pierce Pte Ltd) was added onto the membrane. After removing the substrate, the membrane was exposed to an X-ray film (Kodak) for 1 sec-20 mins. The X-ray film was developed using the X-ray film processor. The density of each band observed on the developed film could be qualitatively analysed using UVP Bioimaging software (UVP, Inc, Upland, Calif.). The values were then normalized against the density of actin in the corresponding samples to obtain the expression of the protein.
The results of immuno-blotting assay using acetylated histone H3 antibody are shown in Table 5 for representative compounds of this invention.

HDAC1 enzyme (recombinant GST-HDAC1), sequence (Q13547 whole entry): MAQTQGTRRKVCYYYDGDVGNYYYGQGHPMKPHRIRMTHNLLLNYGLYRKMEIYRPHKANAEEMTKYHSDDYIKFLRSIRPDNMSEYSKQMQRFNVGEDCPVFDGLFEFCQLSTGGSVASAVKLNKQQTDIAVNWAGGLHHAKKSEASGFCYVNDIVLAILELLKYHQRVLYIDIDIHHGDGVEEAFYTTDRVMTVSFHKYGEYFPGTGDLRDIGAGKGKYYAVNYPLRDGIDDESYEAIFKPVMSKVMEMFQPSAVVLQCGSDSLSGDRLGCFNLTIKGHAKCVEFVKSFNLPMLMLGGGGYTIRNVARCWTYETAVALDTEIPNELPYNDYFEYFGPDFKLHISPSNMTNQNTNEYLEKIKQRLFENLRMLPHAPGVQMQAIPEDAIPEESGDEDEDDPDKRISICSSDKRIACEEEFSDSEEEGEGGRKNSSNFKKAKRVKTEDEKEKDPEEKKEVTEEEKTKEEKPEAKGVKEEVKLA

pIC50 [1]	GI50 ([2]; COLO 205, 96 h treatment)	GI50 ([2]; COLO 205, 96 h, 96 h treatment)	Structure (SMILES)	Histone acetylation activities (Histone-3) [3]
7.20	0.54 µM		CCCCNCc1c(-c2ccc(F)cc2)nc2cc(/C=C/C(=O)NO)ccn12 [Compound 63, 3-[3-Butylaminomethyl-2-(4-fluoro-phenyl)-imidazo[1,2-a]pyridin-7-yl]-N-hydroxy-acrylamide]	active
6.62	0.79 µM		CCCN(C)Cc1c(-c2ccccc2)nc2cc(C=CC(=O)NO)ccn12 [Compound 40, N-Hydroxy-3-{3-[(methyl-propyl-amino)-methyl]-2-phenyl-imidazo[1,2-a]pyridin-7-yl}-acrylamide]	active
7.29	0.27 µM		CC(C)(C)NCc1c(-c2ccc(F)cc2)nc2cc(/C=C/C(=O)NO)ccn12 [Compound 64, 3-[3-(tert-Butylamino-methyl)-2-(4-fluoro-phenyl)-imidazo[1,2-a]pyridin-7-yl]-N-hydroxy-acrylamide]	active
6.80	0.44 µM		CCCCNCc1c(-c2ccccc2)nc2cc(/C=C/C(=O)NO)ccn12 [Compound 39, 3-(3-Butylaminomethyl-2-phenyl-imidazo[1,2-a]pyridin-7-yl)-N-hydroxy-acrylamide]	active
7.35	0.26 µM		CC(C)(C)NCc1c(-c2ccccc2)nc2cc(/C=C/C(=O)NO)ccn12 [Compound 45, 3-[3-(tert-Butylamino-methyl)-2-phenyl-imidazo[1,2-a]pyridin-7-yl]-N-hydroxy-acrylamide]	active
7.08	0.48 µM		O=C(/C=C/c1ccn2c(CN3CCCC3)c(-c3ccccc3)nc2c1)NO [Compound 60, N-Hydroxy-3-(2-phenyl-3-pyrrolidin-1-ylmethyl-imidazo[1,2-a]pyridin-7-yl)-acrylamide]	active
6.80	0.59 µM		CCCCNCc1c(C(C)(C)C)nc2cc(/C=C/C(=O)NO)ccn12 [Compound 49, 3-(2-tert-Butyl-3-butylaminomethyl-imidazo[1,2-a]pyridin-7-yl)-N-hydroxy-acrylamide]	active
6.70	0.53 µM		CCCCc1nc2cc(/C=C/C(=O)NO)ccn2c1CN(CC)CCC(C)CC(C)(C)C (stereo not drawn) [Compound 119, 3-(2-Butyl-3-{[ethyl-(3,55-trimethyl-hexyl)-amino]-methyl}-imidazo[1,2-a]pyridin-7-yl)-N-hydroxy-acrylamide]	
6.57	0.73 µM		CN(CCC(C)(C)C)Cc1c(C(C)(C)C)nc2cc(/C=C/C(=O)NO)ccn12 [Compound 109, 3-(2-tert-Butyl-3-{[(3,3-dimethyl-butyl)-methyl-amino]-methyl}-imidazo[1,2-a]pyridin-7-yl)-N-hydroxy-acrylamide]	
< 5.00	20 µM		COCCNc1c(CC(C)CC(C)(C)C)nc2c(/C=C/C(=O)NO)cccn12 (stereo not drawn) [Compound 16, (E)-N-hydroxy-3-(3-(2-methoxyethylamino)-2-(2,4,4-trimethylpentyl)imidazo[1,2-a]pyridin-8-yl)acrylamide]	
5.57	9.3 µM		COCCNc1c(C(C)C)nc2ccc(/C=C/C(=O)NO)cn12 [Compound 7, N-Hydroxy-3-[2-isopropyl-3-(2-methoxy-ethylamino)-imidazo[1,2-a]pyridin-6-yl]-acrylamide]	
7.05	0.6 µM		CCN(CCCSC)Cc1c(C(C)(C)C)nc2cc(/C=C/C(=O)NO)ccn12 [Compound 95, 3-(2-tert-Butyl-3-{[ethyl-(3-methylsulfanyl-propyl)-amino]-methyl}-imidazo[1,2-a]pyridin-7-yl)-N-hydroxy-acrylamide]	
6.89	0.74 µM		CC(C)(C)NCc1c(C(C)(C)C)nc2cc(/C=C/C(=O)NO)ccn12 [Compound 69, 3-[2-tert-Butyl-3-(tert-butylamino-methyl)-imidazo[1,2-a]pyridin-7-yl]-N-hydroxy-acrylamide]	
6.19	2.8 µM		O=C(/C=C/c1ccc2nc(CCc3ccccc3)c(Nc3ccc4c(c3)OCO4)n2c1)NO [Compound 4, 3-[3-(Benzo[1,3]-dioxol-5-ylamino)-2-phenethyl-imidazo[1,2-a]pyridin-6-yl]-N-hydroxy-acrylamide]	
6.27		4.6 µM	CCCN(CC)Cc1c(C)nc2cc(/C=C/C(=O)NO)ccn12 [Compound 100, 3-{3-[(Ethyl-propyl-amino)-methyl]-2-methyl-imidazo[1,2-a]pyridin-7-yl}-N-hydroxy-acrylamide]	
6.80	15 µM		CCCCCCc1nc2cc(/C=C/C(=O)NO)ccn2c1NCCC(=O)NCC(F)(F)F [Compound 23, 3-{2-Hexyl-3-[2-(2,2,2-trifluoro-ethylcarbamoyl)-ethylamino]-imidazo[1,2-a]pyridin-7-yl}-N-hydroxy-acrylamide]	
7.22	0.47 µM		CCNCc1c(C(C)(C)C)nc2cc(/C=C/C(=O)NO)ccn12 [Compound 84, 3-(2-tert-Butyl-3-ethylaminomethyl-imidazo[1,2-a]pyridin-7-yl)-N-hydroxy-acrylamide]	
6.24	3.9 µM		CCN(Cc1c(C(C)(C)C)nc2cc(/C=C/C(=O)NO)ccn12)CC(C)C [Compound 86, 3-{2-tert-Butyl-3-[(ethyl-isobutyl-amino)-methyl]-imidazo[1,2-a]pyridin-7-yl}-N-hydroxy-acrylamide]	
6.96	7.3 µM		CCCCCCc1nc2cc(/C=C/C(=O)NO)ccn2c1NCCC(=O)NCCN(CC)CC [Compound 28, 3-{3-[2-(2-Diethylamino-ethylcarbamoyl)-ethylamino]-2-hexyl-imidazo[1,2-a]pyridin-7-yl}-N-hydroxy-acrylamide]	
5.89	2.5 µM		Cc1cn2ccc(/C=C/C(=O)NO)cc2n1 [Compound 41, N-Hydroxy-3-(2-methyl-imidazo[1,2-a]pyridin-7-yl)-acrylamide]	
7.05	0.58 µM		CCCCc1nc2cc(/C=C/C(=O)NO)ccn2c1CN(CCC)CCCC [Compound 78, 3-{2-Butyl-3-[(butyl-propyl-amino)-methyl]-imidazo[1,2-a]pyridin-7-yl}-N-hydroxy-acrylamide]	
6.66	1.7 µM		CCCCN(C)Cc1c(C(C)(C)C)nc2cc(/C=C/C(=O)NO)ccn12 [Compound 106, 3-{2-tert-Butyl-3-[(butyl-methyl-amino)-methyl]-imidazo[1,2-a]pyridin-7-yl}-N-hydroxy-acrylamide]	
